Laboratory results from patent US12398140B2, “Substituted pyrrolo [2,3-d]pyrimidines for treating familial dysautonomia” (PTC THERAPEUTICS, INC., priority 2019, dated 2025).

test system: Elongator complex protein 1 (ELPI, also referred to as IKBKAP); assay: IKBKAP-HTRF assay (IKBKAP protein in lysates of FD patient-derived fibroblasts); assay type: cell-based, human; details: FD patient-derived fibroblasts GM04589, 48 hours, 7-point concentration curve
Method: The assay is used for the quantitative determination of Elongator complex protein 1 (ELPI, also referred to as IKBKAP) concentration in cell lysates using the HTRF® (Homogeneous Time-Resolved Fluorescence) technology. IKBKAP is detected in a sandwich HTRF assay by use of an anti-IKAP antibody labeled with a donor and an anti-IKAP antibody labeled with an acceptor.
Cells were thawed and incubated in DMEM-10% FBS for 72 hours. Cells were trypsinized, counted, and re-suspended to a concentration of 50,000 cells/ml in DMEM-10% FBS. A 199 μL aliquot of the cell suspensions were plated at 10,000 cells per well in a 96 well microtiter plate and incubated for 3 to 5 hours. […] Test compounds were serially diluted 3.16-fold in 100% DMSO to generate a 7-point concentration curve. A 1 μL aliquot of 200× compound solution was transferred to cell-containing wells, and cells were incubated for 48 hours in a cell culture incubator (37° C., 5% CO2, 100% relative humidity). Triplicate samples were set up for each compound concentration. After 48 hours, the supernatant was removed from the cells and 50 μL of the 1×LB4 lysis buffer, containing protease inhibitors, was added to the cells and incubated with shaking at room temperature for 1 hour. A 36 μL aliquot of this lysate was subsequently transferred to the 384-well plate containing 4 μL of the antibody solution (1:50 dilution of anti IKAP d2 and anti-IKAP K(9+8) in detection buffer). The 384-well plate was then centrifuged for 1 minute to bring the solutions to the bottom of the plate and incubated overnight at 4° C. Fluorescence for each well of the plate at 665 nm and 620 nm was measured was on the EnVision plate reader (Perkin Elmer). The ΔF for each sample is calculated by:
[formula] wherein Signal is the normalized fluorescence for each sample well and Blank is the average normalized average fluorescence for the Blank control wells.
The maximum fold increase (MFI) in IKBKAP protein abundance for compounds of Formula (I) or a form thereof relative to the vehicle control are provided in Table 1. MFI was calculated by dividing the ΔF value for each sample well by the sample ΔF for the vehicle control wells.
The EC2x for IKBKAP protein expression obtained from the 7-point concentration curve generated for each test compound according to the protocol in Biological Example 1 are also provided in Table 1. The term “EC2x for IKBKAP protein expression” is defined as the concentration of test compound that is effective in producing two times the amount of IKBKAP protein in a FD patient cell compared to the amount produced from the DMSO vehicle control.

Compound | EC2x for IKBKAP protein expression (concentration producing two times the amount of IKBKAP protein vs DMSO vehicle control) | MFI (maximum fold increase in IKBKAP protein abundance relative to the vehicle control)
CCCCc1c(C[C@H](C)N)[nH]c2nc(Cl)nc(NCc3ccco3)c12.Cl [Cpd 28, 6-[(2S)-2-aminopropyl]-5-butyl-2-chloro-N-[(furan-2-yl)methyl]-7H-pyrrolo[2,3-d]pyrimidin-4-amine hydrochloride] | * (An EC2x>1 μM is indicated by one star (*)) | * (An MFI≤1.9 is indicated by one star (*))
C[C@H](N)Cc1c(F)c2c(NCc3ccccn3)nc(Cl)nc2n1C.Cl.Cl [Cpd 55, 6-[(2S)-2-aminopropyl]-2-chloro-5-fluoro-7-methyl-N-[(pyridin-2-yl)methyl]-7H-pyrrolo[2,3-d]pyrimidin-4-amine dihydrochloride] | * (An EC2x>1 μM is indicated by one star (*)) | * (An MFI≤1.9 is indicated by one star (*))
CC(C)[C@H](N)Cc1cc2c(NCc3ccncc3)nc(Cl)nc2[nH]1.Cl.Cl [Cpd 12, 6-[(2R)-2-amino-3-methylbutyl]-2-chloro-N-[(pyridin-4-yl)methyl]-7H-pyrrolo[2,3-d]pyrimidin-4-amine dihydrochloride] | *** (between >0.02 μM and ≤0.5 μM is indicated by three stars (***)) | ***** (>4.9 is indicated by five stars (*****))
C[C@H](N)Cc1cc2c(NCc3ccco3)nc(Cl)nc2[nH]1 [Cpd 16, 6-[(2S)-2-aminopropyl]-2-chloro-N-[(furan-2-yl)methyl]-7H-pyrrolo[2,3-d]pyrimidin-4-amine] | **** (between >0.005 μM and ≤0.02 μM is indicated by four stars (****)) | **** (between >3.9 and ≤4.9 is indicated by four stars (****))
CNCCc1cc2c(NCc3ccco3)nc(Cl)nc2[nH]1.Cl [Cpd 3, 2-chloro-N-[(furan-2-yl)methyl]-6-[2-(methylamino)ethyl]-7H-pyrrolo[2,3-d]pyrimidin-4-amine hydrochloride] | *** (between >0.02 μM and ≤0.5 μM is indicated by three stars (***)) | ***** (>4.9 is indicated by five stars (*****))
COc1ccc(-n2c(C[C@H](C)N)c(F)c3c(NCc4cccs4)nc(Cl)nc32)cc1.Cl [Cpd 47, 6-[(2S)-2-aminopropyl]-2-chloro-5-fluoro-7-(4-methoxyphenyl)-N-[(thiophen-2-yl)methyl]-7H-pyrrolo[2,3-d]pyrimidin-4-amine hydrochloride] | * (An EC2x>1 μM is indicated by one star (*)) | * (An MFI≤1.9 is indicated by one star (*))
Cc1c(C[C@H](C)N)n(C)c2nc(Cl)nc(NCc3ccco3)c12.Cl [Cpd 35, 6-[(2S)-2-aminopropyl]-2-chloro-N-[(furan-2-yl)methyl]-5,7-dimethyl-7H-pyrrolo[2,3-d]pyrimidin-4-amine hydrochloride] | **** (between >0.005 μM and ≤0.02 μM is indicated by four stars (****)) | ***** (>4.9 is indicated by five stars (*****))
C[C@H](N)Cc1cc2c(NCc3cccs3)nc(Cl)nc2[nH]1.Cl [Cpd 25, 6-[(2S)-2-aminopropyl]-2-chloro-N-[(thiophen-2-yl)methyl]-7H-pyrrolo[2,3-d]pyrimidin-4-amine hydrochloride] | **** (between >0.005 μM and ≤0.02 μM is indicated by four stars (****)) | ***** (>4.9 is indicated by five stars (*****))
CC[C@H](N)Cc1[nH]c2nc(Cl)nc(NCc3cccs3)c2c1F.Cl [Cpd 58, 6-[(2S)-2-aminobutyl]-2-chloro-5-fluoro-N-[(thiophen-2-yl)methyl]-7H-pyrrolo[2,3-d]pyrimidin-4-amine hydrochloride] | *** (between >0.02 μM and ≤0.5 μM is indicated by three stars (***)) | **** (between >3.9 and ≤4.9 is indicated by four stars (****))
C[C@H](N)Cc1c(F)c2c(NCc3ccco3)nc(Cl)nc2n1C.Cl [Cpd 24, 6-[(2S)-2-aminopropyl]-2-chloro-5-fluoro-N-[(furan-2-yl)methyl]-7-methyl-7H-pyrrolo[2,3-d]pyrimidin-4-amine hydrochloride] | **** (between >0.005 μM and ≤0.02 μM is indicated by four stars (****)) | ***** (>4.9 is indicated by five stars (*****))
C[C@H](N)Cc1c(F)c2c(NCc3nccs3)nc(Cl)nc2n1C.Cl [Cpd 38, 6-[(2S)-2-aminopropyl]-2-chloro-5-fluoro-7-methyl-N-[(1,3-thiazol-2-yl)methyl]-7H-pyrrolo[2,3-d]pyrimidin-4-amine hydrochloride] | *** (between >0.02 μM and ≤0.5 μM is indicated by three stars (***)) | ***** (>4.9 is indicated by five stars (*****))
C[C@@H](N)Cc1c(F)c2c(NCc3ccco3)nc(Cl)nc2n1C.Cl [Cpd 60, 6-[(2R)-2-aminopropyl]-2-chloro-5-fluoro-N-[(furan-2-yl)methyl]-7-methyl-7H-pyrrolo[2,3-d]pyrimidin-4-amine hydrochloride] | * (An EC2x>1 μM is indicated by one star (*)) | * (An MFI≤1.9 is indicated by one star (*))
CNC(C)Cc1cc2c(NCc3ccco3)nc(Cl)nc2[nH]1.Cl (stereo not shown) [Cpd 4, 2-chloro-N-[(furan-2-yl)methyl]-6-[2-(methylamino)propyl]-7H-pyrrolo[2,3-d]pyrimidin-4-amine hydrochloride] | *** (between >0.02 μM and ≤0.5 μM is indicated by three stars (***)) | **** (between >3.9 and ≤4.9 is indicated by four stars (****))
C[C@H](N)Cc1cc2c(NCc3nccs3)nc(Cl)nc2[nH]1.Cl [Cpd 22, 6-[(2S)-2-aminopropyl]-2-chloro-N-[(1,3-thiazol-2-yl)methyl]-7H-pyrrolo[2,3-d]pyrimidin-4-amine hydrochloride] | **** (between >0.005 μM and ≤0.02 μM is indicated by four stars (****)) | ***** (>4.9 is indicated by five stars (*****))
Cl.NCCCc1cc2c(NCc3ccco3)nc(Cl)nc2[nH]1 [Cpd 1, 6-(3-aminopropyl)-2-chloro-N-[(furan-2-yl)methyl]-7H-pyrrolo[2,3-d]pyrimidin-4-amine hydrochloride] | *** (between >0.02 μM and ≤0.5 μM is indicated by three stars (***)) | **** (between >3.9 and ≤4.9 is indicated by four stars (****))
C[C@H](N)Cc1c(F)c2c(NCc3ccccc3F)nc(Cl)nc2n1C.Cl [Cpd 53, 6-[(2S)-2-aminopropyl]-2-chloro-5-fluoro-N-[(2-fluorophenyl)methyl]-7-methyl-7H-pyrrolo[2,3-d]pyrimidin-4-amine hydrochloride] | *** (between >0.02 μM and ≤0.5 μM is indicated by three stars (***)) | **** (between >3.9 and ≤4.9 is indicated by four stars (****))
Cl.NCCc1cc2c(NCc3ccco3)nc(Cl)nc2[nH]1 [Cpd 8, 6-(2-aminoethyl)-2-chloro-N-[(furan-2-yl)methyl]-7H-pyrrolo[2,3-d]pyrimidin-4-amine hydrochloride] | *** (between >0.02 μM and ≤0.5 μM is indicated by three stars (***)) | *** (between >2.9 and ≤3.9 is indicated by three stars (***))
